Measurements: patent US20250114486A1, “MARKED FATTY ACID DERIVATIVE, PRECURSOR COMPOUND THEREOF, AND USE THEREOF IN CONTRAST AGENT” (BEIJING NORMAL UNIVERSITY, priority 2022, published 2025)

Test: In vivo biodistribution of radioactive ^99mTc complexes in female SD rats
Design: species or system female Sprague-Dawley (SD) rats
Settings: for Biodistribution: Large Intestine / Biodistribution: Small Intestine / Biodistribution: Stomach: unit % ID
Description: Female SD rats (180-220 g, n=3) were fasted for 12 h before the experiment, and the purified radioactive 99mTc complexes 78-81 were prepared into physiological saline (containing 10% ethanol) solutions of about 250-350 μCi/mL. 200 μL of the above solution was injected into the tail vein of female SD rats, and the rats were killed by cervical dislocation at five time points, 15, 30, 60, 120 and 240 min after the tail vein injection. The blood, brain, heart, liver, spleen, lung, kidney, muscle, bone, large intestine, small intestine, stomach and tail were collected, weighed and counted, and the count distribution of each tissue and organ was calculated (unit: % ID/g, the unit of large intestine, small intestine and stomach is % ID), and the data are the mean±standard deviation of three mice in each phase. At the same time, 200 μL of the above solution was diluted to 20 mL, which was used as the % ID without deducting the tail count.

SMILES: COC(C)(C)C[N+]#[C][99Tc-5]([C]#[N+]CC(C)(C)OC)([C]#[N+]CC(C)(C)OC)([C]#[N+]CC(C)(C)OC)([C]#[N+]CC(C)(C)OC)[C]#[N+]CC(C)(C)OCCCCSCCCCC(=O)O [^99mTc complex 79]
- Biodistribution: Blood (15 min post-injection): 0.11 ± 0.02 ID %/g
- Biodistribution: Bone (15 min post-injection): 0.13 ± 0.02 ID %/g
- Biodistribution: Brain (15 min post-injection): 0.021 ± 0.005 ID %/g
- Biodistribution: Heart (15 min post-injection): 1.50 ± 0.27 ID %/g
- Biodistribution: Kidney (15 min post-injection): 4.87 ± 0.72 ID %/g
- Biodistribution: Liver (15 min post-injection): 1.28 ± 0.19 ID %/g
- Biodistribution: Lungs (15 min post-injection): 0.30 ± 0.06 ID %/g
- Biodistribution: Muscle (15 min post-injection): 0.24 ± 0.06 ID %/g
- Biodistribution: Spleen (15 min post-injection): 0.52 ± 0.10 ID %/g
- Heart-to-Blood ratio (15 min post-injection): 13.99 ± 3.55
- Heart-to-Liver ratio (15 min post-injection): 1.22 ± 0.33
- Heart-to-Lungs ratio (15 min post-injection): 5.16 ± 0.69
- absolute myocardial uptake value (15 min post-injection): 1.50±0.27 % ID/g
- Biodistribution: Large Intestine (15 min post-injection): 0.76 ± 0.20 % ID
- Biodistribution: Small Intestine (15 min post-injection): 14.70 ± 0.78 % ID
- Biodistribution: Stomach (15 min post-injection): 0.51 ± 0.05 % ID
- Biodistribution: Blood (30 min post-injection): 0.09 ± 0.01 ID %/g
- Biodistribution: Bone (30 min post-injection): 0.09 ± 0.01 ID %/g
- Biodistribution: Brain (30 min post-injection): 0.012 ± 0.005 ID %/g
- Biodistribution: Heart (30 min post-injection): 2.24 ± 0.31 ID %/g
- Biodistribution: Kidney (30 min post-injection): 3.37 ± 0.38 ID %/g
- Biodistribution: Liver (30 min post-injection): 1.38 ± 0.16 ID %/g
- Biodistribution: Lungs (30 min post-injection): 0.27 ± 0.03 ID %/g
- Biodistribution: Muscle (30 min post-injection): 0.81 ± 0.14 ID %/g
- Biodistribution: Spleen (30 min post-injection): 0.16 ± 0.01 ID %/g
- Heart-to-Blood ratio (30 min post-injection): 25.88±5.10
- Heart-to-Liver ratio (30 min post-injection): 1.63 ± 0.27
- absolute myocardial uptake value (30 min post-injection): 2.24±0.31 % ID/g
- Biodistribution: Large Intestine (30 min post-injection): 12.06 ± 3.78 % ID
- Biodistribution: Small Intestine (30 min post-injection): 25.98 ± 3.13 % ID
- Biodistribution: Stomach (30 min post-injection): 0.47 ± 0.15 % ID
- Biodistribution: Blood (60 min post-injection): 0.04 ± 0.01 ID %/g
- Biodistribution: Bone (60 min post-injection): 0.05 ± 0.01 ID %/g
- Biodistribution: Brain (60 min post-injection): 0.009 ± 0.001 ID %/g
- Biodistribution: Heart (60 min post-injection): 2.45 ± 0.35 ID %/g
- Biodistribution: Kidney (60 min post-injection): 1.65 ± 0.53 ID %/g
- Biodistribution: Liver (60 min post-injection): 0.66 ± 0.12 ID %/g
- Biodistribution: Lungs (60 min post-injection): 0.14 ± 0.02 ID %/g
- Biodistribution: Muscle (60 min post-injection): 0.47 ± 0.10 ID %/g
- Biodistribution: Spleen (60 min post-injection): 0.09 ± 0.02 ID %/g
- Heart-to-Blood ratio (60 min post-injection): 56.19±13.56
- Heart-to-Liver ratio (60 min post-injection): 3.82±1.21
- Heart-to-Lungs ratio (60 min post-injection): 17.12±3.09
- absolute myocardial uptake value (60 min post-injection): 2.45±0.35 % ID/g
- Biodistribution: Large Intestine (60 min post-injection): 16.70 ± 2.72 % ID
- Biodistribution: Small Intestine (60 min post-injection): 22.54 ± 5.67 % ID
- Biodistribution: Stomach (60 min post-injection): 0.19 ± 0.06 % ID
- Biodistribution: Blood (120 min post-injection): 0.012 ± 0.002 ID %/g
- Biodistribution: Bone (120 min post-injection): 0.04 ± 0.01 ID %/g
- Biodistribution: Brain (120 min post-injection): 0.009 ± 0.002 ID %/g
- Biodistribution: Heart (120 min post-injection): 1.54 ± 0.45 ID %/g
- Biodistribution: Kidney (120 min post-injection): 0.65 ± 0.14 ID %/g
- Biodistribution: Liver (120 min post-injection): 0.28 ± 0.01 ID %/g
- Biodistribution: Lungs (120 min post-injection): 0.11 ± 0.03 ID %/g
- Biodistribution: Muscle (120 min post-injection): 0.21 ± 0.05 ID %/g
- Biodistribution: Spleen (120 min post-injection): 0.05 ± 0.01 ID %/g
- Heart-to-Blood ratio (120 min post-injection): 118.25±44.79
- Heart-to-Liver ratio (120 min post-injection): 5.55±1.38
- Heart-to-Lungs ratio (120 min post-injection): 15.05±5.27
- absolute myocardial uptake value (120 min post-injection): 1.54 0.45 % ID/g
- Biodistribution: Large Intestine (120 min post-injection): 27.61 ± 2.20 % ID
- Biodistribution: Small Intestine (120 min post-injection): 5.24 ± 0.78 % ID
- Biodistribution: Stomach (120 min post-injection): 0.22 ± 0.03 % ID
- Biodistribution: Blood (240 min post-injection): 0.025 ± 0.003 ID %/g
- Biodistribution: Bone (240 min post-injection): 0.13 ± 0.03 ID %/g
- Biodistribution: Brain (240 min post-injection): 0.007 ± 0.002 ID %/g
- Biodistribution: Heart (240 min post-injection): 0.60 ± 0.04 ID %/g
- Biodistribution: Kidney (240 min post-injection): 0.22 ± 0.02 ID %/g
- Biodistribution: Liver (240 min post-injection): 0.24 ± 0.01 ID %/g
- Biodistribution: Lungs (240 min post-injection): 0.09 ± 0.01 ID %/g
- Biodistribution: Muscle (240 min post-injection): 0.27 ± 0.02 ID %/g
- Biodistribution: Spleen (240 min post-injection): 0.11 ± 0.01 ID %/g
- Heart-to-Blood ratio (240 min post-injection): 24.36±1.72
- Heart-to-Liver ratio (240 min post-injection): 2.45 ± 0.18
- Heart-to-Lungs ratio (240 min post-injection): 6.66±0.60
- absolute myocardial uptake value (240 min post-injection): 0.60±0.04 % ID/g
- Biodistribution: Large Intestine (240 min post-injection): 33.40 ± 4.10 % ID
- Biodistribution: Small Intestine (240 min post-injection): 4.53 ± 0.88 % ID
- Biodistribution: Stomach (240 min post-injection): 0.20 ± 0.02 % ID
- absolute myocardial uptake peak value (peak at 60 min post-injection): 2.45±0.35 % ID/g
